Data from patent publication US20200323962A1, “LIPOPHILIC PEPTIDE PRODRUGS” (YISSUM RESEARCH DEVELOPMENT COMPANY OF THE HEBREW …, priority 2017, published 2020).
Like-named read-outs stand apart in the source and are kept apart here. *1 amine or outer side, *2 acyl side, *3 side chain or, on linkers, in order; H or OH if unused. Where a SMILES comes first, the peptide text is derived from it. Bridges are numbered along the chain shown (N, C = ends). Where no end group is shown, it is not given here. [ ]: non-standard residue; d: D form. Phe(Nα-(CH2)3CO) = O=C([C@H](Cc1ccccc1)N(CCCC(=O)[*:3])[*:1])[*:2]; N(2-aminoethyl)Phe = O=C([C@H](Cc1ccccc1)N(CCN[*:3])[*:1])[*:2]

Assays:
in vitro [1] = conditions: human, Caco-2, Papp AB
Description: (§1) The culture growth medium consisted of DMEM supplemented with 10% heat-inactivated FBS, 1% MEM-NEAA, 2 mM 1-glutamine, 1 mM sodium pyruvate, 50,000 units Penicillin G Sodium and 50 mg Streptomycin Sulfate (Biological Industries). The medium was replaced every other day.
(§2) Cells (passage 55-60) were seeded at density of 25×10^5 cells/cm^2 on untreated culture inserts of polycarbonate membrane with 0.4 μm pores and surface area of 1.1 cm^2. Culture inserts containing Caco-2 monolayer were placed in 12 mm transwell plates (Corning). Culture medium was replaced every other day. Transepithelial Electrical Resistance (TEER) values were measured by Millicell ERS-2 System (Millipore) a week after seeding up to experiment day (21-23 days) to ensure proliferation and differentiation of the cells. When the cells were fully differentiated and TEER values became stable (200-500 Ω·cm^2). The TEER values were compared to control inserts containing only the medium.
(§3) The experiment was initiated by replacing the medium from both sides by apical (600 μl) and basolateral (1500 μl) buffers, both warmed to 37° C. The Cells were incubated with the buffers solutions for 30 min at 37° C. on a shaker (100 cycles/min). […] 50 μl samples were taken from the apical side immediately at the beginning of the experiment, resulting in 550 μl apical volume during the experiment.
(§4) Permeability Coefficient (Papp) for each compound was calculated from the linear plot of drug accumulated versus time, using the following equation:
(§5) Where dq/dt is steady state appearance rate of the compound on the receiver side, C0 is the initial concentration of the drug on the donor side, and A is the exposed tissue surface area (1.1 cm^2).
(§6) Transport studies were performed through the Caco-2 monolayer mounted in an Ussing-type chamber set-up with continuous trans-epithelial electrical resistance (TEER) measurements to assure TEER between 800 and 1200 Ω*cm^2. HBSS supplemented with 10 mM IVIES and adjusted to pH 6.5 were used as transport medium in the donor compartment and pH 7.4 in the acceptor compartment. The donor solution contained the test compound.
(§7) Permeability mechanism of compounds is studied by evaluating the Papp of a compound from the apical to the basolateral (A-to-B) membrane and its Papp from the basolateral to the apical membrane (B-to-A). The A-to-B assay simulates passive and transporter-mediated permeability. The B-to-A assay is essential complementary experiment indicative of the activity of P-gp. The ratio of the A-to-B and B-to A Papps (efflux ratio) is calculated to determine the permeability mechanism.

somatostatin receptors = conditions: SSTR subtypes; cited from earlier work
[2] = test system: amylase and lipase release from the pancreas; conditions: bombesin- and caerulein-induced; cited from earlier work
[3] = for Mass retention / Permeability, Mean / Permeability, replicate 1 / Permeability, replicate 2 / Permeability, replicate 3: PAMPA, pH 7.4
Excerpt: The Parallel Artificial Membrane Permeability Assay (PAMPA) is used as an in vitro model of passive, transcellular permeation. […] This assay also allows evaluation of permeability over a large pH range, which is valuable for a preliminary understanding of how orally delivered compounds might be absorbed across the entire gastrointestinal tract. […] Depending upon the types of lipids used and other experimental conditions, PAMPA may be designed to model absorption in gastrointestinal tract (PAMPA-GIT), blood-brain barrier penetration (PAMPA-BBB) or skin penetration (Skin PAMPA). All steps of the PAMPA were carried out according to pION Inc. PAMPA Explorer™ Manual. The main principle of the assay is the incubation of compound in donor chamber (a well in Donor Plate) with aqueous buffer, which is separated from acceptor chamber (a well in Acceptor Plate) with another buffer by a phospholipid or hydrocarbon membrane fixed on a filter support. After the test, concentrations in the corresponding donor and acceptor wells are measured and permeability is calculated. GIT model was simulated using GIT-0 phospholipid mix. […] All compounds were tested in triplicates. Prisma HT buffer (pH 7.4) containing 50 μM test compounds and 0.5% DMSO were added into the Donor Plate wells. Acceptor Sink buffer was added into each well of the acceptor plate. Incubation was done at room temperature for 4 hours without stirring. […] Compounds with low UV-Vis signal were detected by LC-MS/MS method. Then the apparent permeability coefficient was calculated.

human αvβ5-integrin = target: T1, human αvβ5-integrin (Homo sapiens, UniProt P06756+P18084); experiment: Integrin binding assay (solid-phase), αvβ5
T1 construct: purchased Millipore
T1 sequence (P06756 31-889 limits assumed): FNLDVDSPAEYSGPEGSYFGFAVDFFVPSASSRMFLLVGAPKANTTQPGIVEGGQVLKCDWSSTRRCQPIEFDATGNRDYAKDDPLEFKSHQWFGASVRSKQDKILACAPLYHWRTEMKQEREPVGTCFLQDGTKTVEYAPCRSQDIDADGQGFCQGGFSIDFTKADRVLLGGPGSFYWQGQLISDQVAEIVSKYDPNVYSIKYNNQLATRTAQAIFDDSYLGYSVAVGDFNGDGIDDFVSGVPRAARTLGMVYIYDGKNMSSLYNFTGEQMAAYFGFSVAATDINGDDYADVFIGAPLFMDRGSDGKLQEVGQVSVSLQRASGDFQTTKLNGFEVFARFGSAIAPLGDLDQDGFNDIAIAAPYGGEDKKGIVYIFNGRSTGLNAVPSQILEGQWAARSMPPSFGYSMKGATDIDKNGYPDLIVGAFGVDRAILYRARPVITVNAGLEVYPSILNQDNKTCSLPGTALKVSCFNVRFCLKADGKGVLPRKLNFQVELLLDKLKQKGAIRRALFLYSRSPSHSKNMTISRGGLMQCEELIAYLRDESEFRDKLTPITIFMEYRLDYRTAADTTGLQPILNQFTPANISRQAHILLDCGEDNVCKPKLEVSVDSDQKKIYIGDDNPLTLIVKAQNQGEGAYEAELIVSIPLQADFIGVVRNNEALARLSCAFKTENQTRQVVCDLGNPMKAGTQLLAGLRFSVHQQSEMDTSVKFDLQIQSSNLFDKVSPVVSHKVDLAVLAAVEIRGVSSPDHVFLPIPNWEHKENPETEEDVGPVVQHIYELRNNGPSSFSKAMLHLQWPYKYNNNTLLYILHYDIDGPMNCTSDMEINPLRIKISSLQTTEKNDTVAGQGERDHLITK
T1 sequence (P06756 891-1048 partner limits assumed): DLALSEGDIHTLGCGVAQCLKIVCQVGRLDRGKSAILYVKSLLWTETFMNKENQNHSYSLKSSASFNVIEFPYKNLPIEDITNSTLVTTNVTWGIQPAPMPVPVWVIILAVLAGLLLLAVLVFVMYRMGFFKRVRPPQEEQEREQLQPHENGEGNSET
T1 sequence (P18084 24-799): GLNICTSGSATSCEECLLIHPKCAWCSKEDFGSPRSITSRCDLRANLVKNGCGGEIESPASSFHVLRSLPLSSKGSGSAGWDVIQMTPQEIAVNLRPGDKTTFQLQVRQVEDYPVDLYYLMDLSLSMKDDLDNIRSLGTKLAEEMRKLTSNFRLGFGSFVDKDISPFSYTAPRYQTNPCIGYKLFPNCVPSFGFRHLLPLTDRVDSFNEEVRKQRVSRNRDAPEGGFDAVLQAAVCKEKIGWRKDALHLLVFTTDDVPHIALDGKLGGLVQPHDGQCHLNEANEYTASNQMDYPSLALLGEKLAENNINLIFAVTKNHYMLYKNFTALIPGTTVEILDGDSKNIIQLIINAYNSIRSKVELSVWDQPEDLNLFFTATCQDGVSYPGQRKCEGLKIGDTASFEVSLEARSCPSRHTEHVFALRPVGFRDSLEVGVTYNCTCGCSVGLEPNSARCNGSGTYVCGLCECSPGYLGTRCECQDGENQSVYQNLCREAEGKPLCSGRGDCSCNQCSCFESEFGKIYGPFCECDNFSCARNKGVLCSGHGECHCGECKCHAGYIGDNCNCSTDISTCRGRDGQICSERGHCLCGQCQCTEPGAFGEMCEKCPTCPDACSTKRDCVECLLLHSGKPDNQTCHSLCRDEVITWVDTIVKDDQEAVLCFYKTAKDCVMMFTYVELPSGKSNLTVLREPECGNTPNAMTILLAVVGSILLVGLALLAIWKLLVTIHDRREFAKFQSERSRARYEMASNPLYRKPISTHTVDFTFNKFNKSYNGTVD
Description: (1) 5.0 μg/mL; human vitronectin, Millipore.
(2) 3.0 μg/mL, human αvβ5-integrin, Millipore.

human αvβ6-Integrin = target: T2, human αvβ6-Integrin (Homo sapiens, UniProt P06756+P18564, DEL708-788); experiment: Integrin binding assay (solid-phase), αvβ6
T2 construct: purchased R&D
T2 sequence (P06756 31-992 limits assumed, stated change not applied): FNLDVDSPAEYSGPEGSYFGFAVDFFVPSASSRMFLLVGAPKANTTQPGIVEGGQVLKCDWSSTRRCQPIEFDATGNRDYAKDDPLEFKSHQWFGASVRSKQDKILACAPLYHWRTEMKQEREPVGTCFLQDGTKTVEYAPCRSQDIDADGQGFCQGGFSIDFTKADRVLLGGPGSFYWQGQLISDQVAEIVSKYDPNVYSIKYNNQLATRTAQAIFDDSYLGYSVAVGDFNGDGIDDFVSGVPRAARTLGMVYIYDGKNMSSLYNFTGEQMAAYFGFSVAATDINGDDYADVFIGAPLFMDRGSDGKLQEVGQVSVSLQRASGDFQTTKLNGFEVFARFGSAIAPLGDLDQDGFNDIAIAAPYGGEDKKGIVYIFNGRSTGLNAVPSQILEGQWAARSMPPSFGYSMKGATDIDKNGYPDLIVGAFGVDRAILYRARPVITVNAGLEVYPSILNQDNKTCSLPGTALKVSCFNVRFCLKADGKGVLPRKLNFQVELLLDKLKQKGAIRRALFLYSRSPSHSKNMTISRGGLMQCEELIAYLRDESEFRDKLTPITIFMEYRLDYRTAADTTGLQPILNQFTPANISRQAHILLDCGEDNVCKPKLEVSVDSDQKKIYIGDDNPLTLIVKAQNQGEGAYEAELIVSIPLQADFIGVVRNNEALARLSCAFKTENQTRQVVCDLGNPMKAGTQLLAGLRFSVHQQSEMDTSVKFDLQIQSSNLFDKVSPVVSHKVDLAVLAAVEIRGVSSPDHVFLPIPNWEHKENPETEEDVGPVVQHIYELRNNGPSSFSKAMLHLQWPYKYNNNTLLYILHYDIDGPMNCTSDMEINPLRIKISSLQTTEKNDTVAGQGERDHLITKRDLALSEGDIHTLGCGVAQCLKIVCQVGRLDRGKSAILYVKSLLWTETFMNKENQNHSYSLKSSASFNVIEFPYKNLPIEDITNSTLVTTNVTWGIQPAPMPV
T2 sequence (P18564 22-707 limits assumed, stated change not applied): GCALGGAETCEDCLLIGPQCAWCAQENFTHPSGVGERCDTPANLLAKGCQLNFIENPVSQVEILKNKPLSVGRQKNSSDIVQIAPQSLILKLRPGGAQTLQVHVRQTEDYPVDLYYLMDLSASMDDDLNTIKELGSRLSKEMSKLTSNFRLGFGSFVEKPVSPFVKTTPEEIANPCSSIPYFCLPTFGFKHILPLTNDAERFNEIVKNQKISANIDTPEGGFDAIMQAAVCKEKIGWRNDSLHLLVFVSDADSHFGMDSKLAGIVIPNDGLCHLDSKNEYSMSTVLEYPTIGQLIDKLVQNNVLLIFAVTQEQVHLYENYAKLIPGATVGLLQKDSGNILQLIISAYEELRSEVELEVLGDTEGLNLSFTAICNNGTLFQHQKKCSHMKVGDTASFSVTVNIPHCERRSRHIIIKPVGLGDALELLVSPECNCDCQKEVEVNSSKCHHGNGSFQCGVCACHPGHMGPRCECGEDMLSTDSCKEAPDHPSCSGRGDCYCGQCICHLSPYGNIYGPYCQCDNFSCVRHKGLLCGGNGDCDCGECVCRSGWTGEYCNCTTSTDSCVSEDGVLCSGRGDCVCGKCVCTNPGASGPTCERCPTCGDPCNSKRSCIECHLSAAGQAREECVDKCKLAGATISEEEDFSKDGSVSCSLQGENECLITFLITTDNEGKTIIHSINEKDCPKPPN
Description: (1) 0.4 μg/mL; LAP (TGF-3), R&D.
(2) 0.5 μg/mL, human αvβ6-Integrin, R&D.

human α5β1-integrin = human α5β1-integrin (Homo sapiens, UniProt P05556+P08648, DEL729-798); experiment: biochemical
Caco-2 cells = experiment: Caco-2 permeability study (Examples 1-4); conditions: qualitative
Description: as §1, §2, §3, §4, §5, §6, §7

[4] = for Papp A→B: Caco-2, Papp (AB); for Papp B→A: Caco-2, Papp (BA)
[5] = pH 7.4, LogD, pH 7.4 (mean / reported value)
Description: Log D. Determination of distribution coefficients were performed as follows:
Incubations were carried out in Eppendorf-type polypropylene microtubes in triplicates. […] Phase separation was assured by centrifugation for 2 min at 6000 rpm. The octanol phase was diluted 100-fold with 40% acetonitrile, and aqueous phase was analyzed without dilution. The samples (both phases) were analyzed using HPLC system coupled with tandem mass spectrometer.

in vitro [6] = conditions: human, Caco-2, pH 7.4, Net efflux (quotient of Papp (BA) to Papp (AB))

Work on COCCc1ccc(OCC(O)CNC(C)C)cc1 (stereo not shown) [metoprolol] yielded a Papp A→B at 150 min (in vitro [1]) of 1.89 ± 0.11 ×10⁻⁶ cm/s.
In the case of “PTR-3046: backbone cyclic somatostatin analog (SEQ ID NO: 28) ([N(2-aminoethyl)Phe]Y[dW]KV[Phe(Nα-(CH2)3CO)]T-NH2; bridge 1-6; also: backbone cyclisation between building units)”, the “somatostatin receptor selectivity” value (somatostatin receptors) is listed as “selective toward the SSTR5” and the “inhibition of amylase and lipase release” value [2] is listed as “inhibits bombesin- and caerulein-induced amylase and lipase release from the pancreas”.
With CCCCCCOC(=O)N=C(NCCC[C@@H]1NC(=O)[C@H](C(C)C)N(C)C(=O)[C@@H](Cc2ccccc2)NC(=O)[C@H](CC(=O)OC)NC(=O)CNC1=O)NC(=O)OCCCCCC [Cil.-P, c(f*VR(Hoc)2 GD)] the “PAMPA permeability” value [3] was “does not enhance the permeability”, the Mass retention [3] was 36% and the “Permeability, Mean” value [3] was −6.5 Log10[10^−6 cm/s]. The “Permeability, replicate 1” value [3] was −8.1 Log10[10^−6 cm/s], the “Permeability, replicate 2” value [3] was −6.6 Log10[10^−6 cm/s] and the “Permeability, replicate 3” value [3] was −6.5 Log10[10^−6 cm/s].
For C[C@@H]1NC(=O)[C@H](C)N(C)C(=O)[C@H](C)NC(=O)[C@H](CC(=O)O)N(C)C(=O)CNC(=O)[C@@H](CCCNC(=N)N)NC1=O [compound 17, c(rG*DA*AA)], the IC50 (human αvβ5-integrin) was > 5 µM, the IC50 (human αvβ6-Integrin) was > 10 µM and the IC50 (human α5β1-integrin) was > 10 µM. For the same compound, the “Caco-2 permeability” value (Caco-2 cells) was “significant lower permeability”.
With CC(C)C[C@@H]1NC(=O)[C@H](CC(=O)O)NC(=O)CNC(=O)[C@H](CCCNC(=N)N)NC(=O)[C@H](Cc2ccccc2)NC(=O)[C@@H]2CCCN2C(=O)[C@@H]2CCCN2C(=O)[C@H](CC(C)C)NC(=O)[C@H](C)NC1=O [OM1186] (cyclo(RGDLALPPF)) the Papp A→B ([4]; Mean) was < 0.3 ×10⁻⁶ cm/s, the Papp A→B ([4]; replicate 1) was < 0.6 ×10⁻⁶ cm/s and the Papp A→B ([4]; replicate 2) was < 0.3 ×10⁻⁶ cm/s. The Papp B→A ([4]; Mean) was 0.2 ×10⁻⁶ cm/s, the Papp B→A ([4]; replicate 1) was 0.1 ×10⁻⁶ cm/s and the Papp B→A ([4]; replicate 2) was 0.2 ×10⁻⁶ cm/s. For the same compound, the Papp B→A ([4]; replicate 3) was 0.3 ×10⁻⁶ cm/s, the logD [5] was -0.19 and the Mass retention [3] was 13%. The “Permeability, Mean” value [3] was <−7 Log10[10^−6 cm/s], the “Permeability, replicate 1” value [3] was <−7 Log10[10^−6 cm/s] and the “Permeability, replicate 2” value [3] was <−7 Log10[10^−6 cm/s]. The “Permeability, replicate 3” value [3] was <−7 Log10[10^−6 cm/s] and the efflux ratio at 90 min, 10 µM (in vitro [6]) was 0.6.
In the case of C[C@@H]1NC(=O)[C@H](CC(=O)O)NC(=O)CNC(=O)[C@@H](CCCNC(=N)N)N(C)C(=O)[C@H](Cc2ccccc2)NC(=O)[C@H](C)N(C)C1=O [compound 33, c(*rGDA*AF)], the IC50 (human αvβ6-Integrin; Table 1, read-out: αvβ6, IC50) is reported as 0.025 ± 0.003 µM.
In the case of CCCCCCOC(=O)N=C(N)NCCC[C@@H]1NC(=O)[C@@H](C(C)C)N(C)C(=O)[C@H](C)N(C)C(=O)[C@H](C)NC(=O)[C@H](CC(=O)OC)NC(=O)CNC1=O [#29P-Hoc], the “PAMPA permeability” value [3] is reported as “low permeability”, the Mass retention [3] is reported as 10% and the “Permeability, Mean” value [3] is reported as <−7 Log10[10^−6 cm/s]. The “Permeability, replicate 1” value [3] was <−7 Log10[10^−6 cm/s], the “Permeability, replicate 2” value [3] was <−7 Log10[10^−6 cm/s] and the “Permeability, replicate 3” value [3] was <−7 Log10[10^−6 cm/s].
